Measured values reported in ChEMBL document CHEMBL4002541 (Medchemcomm, 2014).
Calls of active or inactive are those of the source. The rule behind the calls is not given here.

Columns and labels:
[1] = target: T1, Melatonin receptor type 1A (Homo sapiens, UniProt P48039); assay: Binding affinity to MT1 receptor (unknown origin)
[2] = target: T2, Melatonin receptor type 1B (Homo sapiens, UniProt P49286); assay: Binding affinity to MT2 receptor (unknown origin)
T2 sequence (P49286 whole entry): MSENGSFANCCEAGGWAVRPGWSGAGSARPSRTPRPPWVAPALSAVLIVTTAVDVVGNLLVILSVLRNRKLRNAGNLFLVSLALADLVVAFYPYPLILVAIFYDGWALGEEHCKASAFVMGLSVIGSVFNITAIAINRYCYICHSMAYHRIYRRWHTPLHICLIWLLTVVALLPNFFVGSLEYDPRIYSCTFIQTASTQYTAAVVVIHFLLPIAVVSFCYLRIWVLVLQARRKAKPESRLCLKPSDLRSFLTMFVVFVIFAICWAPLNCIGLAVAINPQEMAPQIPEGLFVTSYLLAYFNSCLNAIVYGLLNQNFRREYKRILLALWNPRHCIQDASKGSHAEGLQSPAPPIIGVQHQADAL

[3] = target: T1, Melatonin receptor type 1A; assay: Displacement of 2-[125I]Iodomelatonin from human MT1 receptor expressed in CHO cell membranes after 120 mins
[4] = target: T2, Melatonin receptor type 1B; assay: Displacement of 2-[125I]Iodomelatonin from human MT2 receptor expressed in CHO cell membranes after 120 mins
[5] = target: T3, 5-hydroxytryptamine receptor 2C (Homo sapiens, UniProt P28335); assay: Displacement of [3H]mesulergine from human 5HT2C (VSV) receptor expressed in CHO cell membranes after 60 mins by scintillation counting method
T3 sequence (P28335 whole entry): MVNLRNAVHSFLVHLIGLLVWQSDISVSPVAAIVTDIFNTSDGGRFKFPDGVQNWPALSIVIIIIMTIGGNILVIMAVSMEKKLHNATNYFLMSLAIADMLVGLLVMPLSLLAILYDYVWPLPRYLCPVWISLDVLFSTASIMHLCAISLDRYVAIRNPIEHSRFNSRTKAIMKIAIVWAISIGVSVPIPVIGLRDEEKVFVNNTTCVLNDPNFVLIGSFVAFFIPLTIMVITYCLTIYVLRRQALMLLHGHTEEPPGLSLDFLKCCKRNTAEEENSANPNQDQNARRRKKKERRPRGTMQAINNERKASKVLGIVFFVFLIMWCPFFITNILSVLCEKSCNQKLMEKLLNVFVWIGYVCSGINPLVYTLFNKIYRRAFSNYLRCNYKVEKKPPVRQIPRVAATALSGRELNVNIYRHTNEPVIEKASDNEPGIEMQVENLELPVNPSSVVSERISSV

[6] = species: Homo sapiens; assay: Selectivity ratio of Ki for human MT1 receptor to Ki for human MT2 receptor
[7] = target: T1, Melatonin receptor type 1A; assay: Agonist activity at human MT1 receptor expressed in CHO cells after 1 hr by [35S]GTPgammaS binding assay; format: functional, cell-based
[8] = target: T2, Melatonin receptor type 1B; assay: Agonist activity at human MT2 receptor expressed in CHO cells after 1 hr by [35S]GTPgammaS binding assay; format: functional, cell-based
[9] = tested on: Mus musculus; assay: Antidepressant activity in OF1 mouse assessed as reduction in immobility time at 0.1 to 10 mg/kg administered 40 mins prior to testing measured for 6 mins by tail suspension test; format: functional, organism-based
[10] = target: T4, 5-hydroxytryptamine receptor 2C (Homo sapiens) (UniProt P28335); assay: Antagonist activity at human 5HT2C (VSV) receptor expressed in CHO cells assessed as inhibition of 5-HT-induced [3H]inositol phosphate production preincubated for 20 mins followed by 5-HT addition relative to 5-HT; format: functional, cell-based
T4 sequence (whole entry): T3 sequence (P28335 whole entry)

[11] = target: T1, Melatonin receptor type 1A; assay: Partial agonist activity at human MT1 receptor expressed in CHO cells after 1 hr by [35S]GTPgammaS binding assay; format: functional, cell-based
[12] = target: T5, Melatonin receptor type 1B (Homo sapiens) (UniProt P49286); assay: (§1) Partial agonist activity at human MT2 receptor expressed in CHO cells after 1 hr by [35S]GTPgammaS binding assay; format: functional, cell-based
T5 sequence (whole entry): T2 sequence (P49286 whole entry)

[13] = target: T2, Melatonin receptor type 1B; assay: as §1; format: functional, cell-based
[14] = target: T4, 5-hydroxytryptamine receptor 2C (Homo sapiens); assay: Antagonist activity at human 5HT2C (VSV) receptor expressed in CHO cells assessed as inhibition of 5-HT-induced [3H]inositol phosphate production preincubated for 20 mins followed by 5-HT addition; format: functional, cell-based
[15] = tested on: Mus musculus; assay: Antidepressant activity in OF1 mouse assessed as reduction in immobility time at 64 mg/kg administered 40 mins prior to testing measured for 6 mins by tail suspension test; format: functional, organism-based
[16] = tested on: Mus musculus; assay: Antidepressant activity in OF1 mouse assessed as reduction in immobility time at 0.1 mg/kg administered 40 mins prior to testing measured for 6 mins by tail suspension test; format: functional, organism-based
[17] = tested on: Mus musculus; assay: Antidepressant activity in OF1 mouse assessed as reduction in immobility time at 1 to 10 mg/kg administered 40 mins prior to testing measured for 6 mins by tail suspension test; format: functional, organism-based

T1 sequence (P48039 whole entry): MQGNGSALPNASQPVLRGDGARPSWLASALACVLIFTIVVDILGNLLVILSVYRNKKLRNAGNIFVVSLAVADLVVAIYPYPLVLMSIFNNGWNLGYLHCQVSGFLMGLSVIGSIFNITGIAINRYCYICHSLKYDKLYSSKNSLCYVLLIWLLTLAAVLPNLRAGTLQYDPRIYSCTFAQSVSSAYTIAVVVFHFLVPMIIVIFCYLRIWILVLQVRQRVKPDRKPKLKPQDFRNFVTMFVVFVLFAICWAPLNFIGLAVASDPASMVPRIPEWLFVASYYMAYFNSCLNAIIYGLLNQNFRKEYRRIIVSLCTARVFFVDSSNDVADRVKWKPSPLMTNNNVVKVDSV

| Compound | Ki [3] | Ki [4] | Ki [5] | EC50 [7] | EC50 [8] | other results |
| --- | --- | --- | --- | --- | --- | --- |
| COc1cc2c([C@@H](C)CNC(C)=O)c[nH]c2cc1Cl |  |  |  |  |  | Ki [1]: 0.0794 nM; Ki [2]: 0.0398 nM |
| COc1ccc2cccc([C@H](CO)CNC(=O)CF)c2c1 | 347 nM | 52.5 nM | > 10000 nM | 1050 nM | 25.1 nM | Ratio Ki [6]: 7; Activity [9]: inactive |
| CCC(=O)NCC(CO)c1cccc2ccc(OC)cc12 (racemic) | 1.35 nM | 2.95 nM | 708 nM | 49 nM | 2.75 nM |  |
| COc1ccc2cccc(CCNC(C)=O)c2c1 |  |  |  |  |  | Imax [10]: 98% |
| COc1ccc2cccc([C@@H](CO)CNC(=O)CF)c2c1 | 5.89 nM | 0.977 nM | 186 nM |  |  | EC50 [11]: 79.4 nM; Emax [11]: 62%; Emax [12]: 99%; EC50 [13]: 0.794 nM; pKb [14]: 6.3; Activity [9]: Active; Imax [10]: 97% |
| COc1ccc2cccc(C(CO)CNC(=O)C(F)F)c2c1 (stereo not drawn) | 1.91 nM | 0.347 nM | 692 nM | 10.2 nM | 0.372 nM |  |
| CN(C)CCCN1c2ccccc2CCc2ccccc21 |  |  |  |  |  | Activity [15]: Active |
| COc1ccc2cccc(C(CO)CNC(=O)CF)c2c1 (racemic) |  | 0.537 nM | 166 nM | 25.1 nM | 0.631 nM |  |
| CCC(=O)NC[C@H](CO)c1cccc2ccc(OC)cc12 | 3.39 nM | 0.316 nM | 417 nM |  |  | EC50 [11]: 19.5 nM; Emax [11]: 59%; Emax [12]: 107%; EC50 [13]: 1.26 nM; pKb [14]: 6; Activity [16]: inactive; Imax [10]: 79%; Activity [17]: Dose-dependent effect |
| COc1ccc2cccc(C(CO)CNC(C)=O)c2c1 (stereo not drawn) | 11 nM | 13.8 nM | 229 nM | 72.4 nM | 145 nM |  |
| CCC(=O)NC[C@@H](CO)c1cccc2ccc(OC)cc12 | 182 nM | 5.5 nM | > 10000 nM | 389 nM | 7.41 nM | Ratio Ki [6]: 53; Activity [9]: inactive |
